In EP0398426A1, “Antirhinoviral (thio)morpholinyl and piperazinyl alkylphenol ethers” (JANSSEN PHARMACEUTICA N.V., priority 1989, dated 1990):
≈ marks a conversion by molar mass, not a printed value.

Legend:
[1] = system: Human Rhinovirus serotypes HRV- 2,-29,-39,-85,-9,-15,-51,-59,-63,-89,-41; test: Picornavirus Minimal Inhibitory Concentration Test (cytopathic effect reduction assay), first panel of rhinoviruses; assay type: cell-based; details: Human rhinovirus sp.; medium value of the IC50-values of all serotypes of the first panel; Ohio Hela cells, 3 to 5 days at 33°C; concentration protecting 50% of the cells from cytopathic effects; read-out: Med₁
Experimental: (§1) The Minimal Inhibitory Concentration of the compounds of the present invention against the Human Rhinovirus strains (HRV) -2,-9,-14,-15,-29,-39,-41,-42,-45,-51,-59,-63, -70,-72,-85,-86,-89 was determined by a standard cytopathic effect reduction assay as follows. To each of the ninty six (96) wells of a microtiter 96 well tissue culture plate there was added 60 µl of a Ohio Hela cell maintenance medium [Eagle's Basal medium supplemented with 5% Foetal Calf Serum (FCS)]. To two wells there was added 60 µl of an appropriate starting dilution of a compound of formula (I) and two-fold dilutions were made to cover a wide range of compound concentrations. Subsequently there were added 120 µl of an infectious solution of virus in Eagle's Basal Medium with 2% Hepes buffer, 2% FCS and 30 mM MgCl₂ to all wells except cell and compound controls. Said infectious virus solution having a TCID₅₀-value (Tissue Culture Infectious Dose) of about 100.
(§2) The TCID₅₀-value is the dose of viruses which initiates a cytopathic effect in 50% of the inoculated cells. 150 µl of the thus obtained virus-compound mixtures were then transferred to microtitre plates with subconfluent Ohio Hela Cells, grown in 100 µl of maintenance medium. Appropriate virus controls, cell controls and compound controls were included in each test. […] The IC₅₀-value for each virus-compound series was taken as the concentration in ng/ml that protected 50% of the cells from cytopathic effects with respect to the untreated controls. In the standard test procedure, the compounds were tested against two panels of rhinoviruses, a first panel consisting of serotypes HRV- 2,-29,-39,-85,-9,-15,-51,-59,-63,-89,-41 and the other panel consisting of HRV-42,-45,-14,-70,-72 and -86.
(§3) The IC₅₀-value for each rhinovirus serotype was determined, and the efficacy of each compound was determined in terms of the Med₁-value and Med₂-value, which is the medium value of the IC₅₀-values of all serotypes from the first and second panel respectively.

[2] = system: Human Rhinovirus serotypes HRV-42,-45,-14,-70,-72 and -86; test: Picornavirus Minimal Inhibitory Concentration Test (cytopathic effect reduction assay), second panel of rhinoviruses; assay type: cell-based; details: Human rhinovirus sp., HRV42, HeLa, read-out: Med₂
Experimental: as §1, §2, §3

Row | Compound | IC50 [1] [ng/mL] | IC50 [2] [ng/mL]
1 | CCOC(=O)c1ccc(OCCC2CN(c3ccc(Cl)nn3)CCO2)cc1 (stereo not drawn) [compound 11] | 6 (≈ 0.0153 µM) | 29 (≈ 0.074 µM)
2 | CCOC(=O)c1ccc(OCCC2CN(c3ccc(Br)nn3)CCO2)cc1 (stereo not drawn) [compound 17] | 2 (≈ 0.00458 µM) | 22 (≈ 0.0504 µM)
3 | CCOC(=O)c1ccc(OCCC2CN(c3ccc(I)nn3)CCO2)cc1 (stereo not drawn) [compound 20] | 2 (≈ 0.00414 µM) | 12 (≈ 0.0248 µM)
4 | CCOC(=O)c1ccc(OCCC2CN(c3nnc(C)s3)CCO2)cc1 (stereo not drawn) [compound 21] | 6 (≈ 0.0159 µM) | 21 (≈ 0.0556 µM)
5 | CCOC(=O)c1ccc(OCCC2CN(c3ccc(SC)nn3)CCO2)cc1 (stereo not drawn) [compound 23, ethyl 4-[2-[4-[6-(methylthio)-3-pyridazinyl]-2-morpholinyl]ethoxy]benzoate] | 3 (≈ 0.00743 µM) | 12 (≈ 0.0297 µM)
6 | CCOC(=O)c1ccc(OCCC2CN(c3ccc(C)nn3)CCO2)cc1 (stereo not drawn) [compound 26] | 5 (≈ 0.0135 µM) | 29 (≈ 0.0781 µM)
